Bounds are passed on as bounds.

The term IC50 denotes the concentration at which inhibition is half-maximal. A lower IC50 goes with greater potency.

Holding throughout (experiment): Enzymatic activity of PI3K isoforms, TR-FRET assay (PIP3 formation)
Assay type in all cases: biochemical

One assay has as its target PI3Kδ (Homo sapiens (Human), UniProt O00329). The settings on record: bound given in nM. The procedure: (§1) Enzymatic activity of the class I PI3K isoforms was measured using a time-resolved fluorescence resonance energy transfer (TR-FRET) assay that monitors formation of the product 3,4,5-inositol triphosphate molecule (PIP3), as it competes with fluorescently labeled PIP3 for binding to the GRP-1 pleckstrin homology domain protein. An increase in […] product results in a decrease in TR-FRET signal as the labeled fluorophore is displaced from the GRP-1 protein binding site.
(§2) Class I PI3K isoforms were expressed and purified as heterodimeric recombinant proteins. All assay reagents and buffers for the TR-FRET assay were purchased from Millipore. […] After an assay reaction time of 30 minutes at 25° C., reactions were terminated with a final concentration of 10 mM EDTA, 10 nM labeled-PIP3, and 35 nM Europium labeled GRP-1 detector protein before reading TR-FRET on an Envision plate reader (Ex: 340 nm; Em: 615/665 nm; 100 μs delay and 500 μs read window).
(§3) IC50 are reported in units of nM. These assays generally produced results within 3-fold of the reported mean.

For the next assay, the target named is PI3Kβ (Homo sapiens (Human), UniProt P42338). The settings on record: bound given in nM. How it is done: as §1
(§4) Class I PI3K isoforms were expressed and purified as heterodimeric recombinant proteins. All assay reagents and buffers for the TR-FRET assay were purchased from Millipore.
(§5) IC50 are reported in units of nM.

Another assay addresses PI3Kα (Homo sapiens (Human), UniProt P42336). The settings on record: bound given in uM. The procedure: as §1, §2, §3
The next assay deals with PI3Kγ (Homo sapiens (Human), UniProt P48736). The procedure:
as §1, §4, §5

Sequence of PI3Kβ (P42338 whole entry, canonical isoform): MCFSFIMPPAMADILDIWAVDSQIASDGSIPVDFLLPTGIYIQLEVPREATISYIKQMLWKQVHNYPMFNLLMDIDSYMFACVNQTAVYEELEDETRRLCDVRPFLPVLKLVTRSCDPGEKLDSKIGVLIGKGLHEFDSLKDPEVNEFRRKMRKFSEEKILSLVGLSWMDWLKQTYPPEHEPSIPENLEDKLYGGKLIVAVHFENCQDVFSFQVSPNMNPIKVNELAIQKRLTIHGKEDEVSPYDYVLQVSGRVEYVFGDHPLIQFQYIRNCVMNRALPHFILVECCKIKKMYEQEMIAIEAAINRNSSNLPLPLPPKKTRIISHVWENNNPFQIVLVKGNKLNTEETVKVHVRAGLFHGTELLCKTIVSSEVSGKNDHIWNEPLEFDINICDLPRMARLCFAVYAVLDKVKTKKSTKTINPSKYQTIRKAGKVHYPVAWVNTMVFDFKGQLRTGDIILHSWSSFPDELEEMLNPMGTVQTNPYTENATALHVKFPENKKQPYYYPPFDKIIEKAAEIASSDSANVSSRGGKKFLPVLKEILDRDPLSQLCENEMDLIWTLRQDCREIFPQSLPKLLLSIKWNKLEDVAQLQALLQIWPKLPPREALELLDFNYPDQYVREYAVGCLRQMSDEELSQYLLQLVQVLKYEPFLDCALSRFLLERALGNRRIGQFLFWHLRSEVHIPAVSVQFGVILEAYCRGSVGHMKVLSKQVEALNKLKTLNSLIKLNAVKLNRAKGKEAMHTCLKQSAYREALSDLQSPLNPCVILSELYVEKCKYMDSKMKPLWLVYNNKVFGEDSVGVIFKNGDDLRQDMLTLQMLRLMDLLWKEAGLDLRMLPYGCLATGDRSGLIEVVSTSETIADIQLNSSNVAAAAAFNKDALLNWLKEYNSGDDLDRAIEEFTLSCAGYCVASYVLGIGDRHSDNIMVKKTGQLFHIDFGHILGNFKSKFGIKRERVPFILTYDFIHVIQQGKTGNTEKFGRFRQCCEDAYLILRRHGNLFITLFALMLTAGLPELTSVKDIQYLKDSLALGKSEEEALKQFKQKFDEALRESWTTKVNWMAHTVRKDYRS
Sequence of PI3Kβ (P27986 whole entry partner, canonical isoform): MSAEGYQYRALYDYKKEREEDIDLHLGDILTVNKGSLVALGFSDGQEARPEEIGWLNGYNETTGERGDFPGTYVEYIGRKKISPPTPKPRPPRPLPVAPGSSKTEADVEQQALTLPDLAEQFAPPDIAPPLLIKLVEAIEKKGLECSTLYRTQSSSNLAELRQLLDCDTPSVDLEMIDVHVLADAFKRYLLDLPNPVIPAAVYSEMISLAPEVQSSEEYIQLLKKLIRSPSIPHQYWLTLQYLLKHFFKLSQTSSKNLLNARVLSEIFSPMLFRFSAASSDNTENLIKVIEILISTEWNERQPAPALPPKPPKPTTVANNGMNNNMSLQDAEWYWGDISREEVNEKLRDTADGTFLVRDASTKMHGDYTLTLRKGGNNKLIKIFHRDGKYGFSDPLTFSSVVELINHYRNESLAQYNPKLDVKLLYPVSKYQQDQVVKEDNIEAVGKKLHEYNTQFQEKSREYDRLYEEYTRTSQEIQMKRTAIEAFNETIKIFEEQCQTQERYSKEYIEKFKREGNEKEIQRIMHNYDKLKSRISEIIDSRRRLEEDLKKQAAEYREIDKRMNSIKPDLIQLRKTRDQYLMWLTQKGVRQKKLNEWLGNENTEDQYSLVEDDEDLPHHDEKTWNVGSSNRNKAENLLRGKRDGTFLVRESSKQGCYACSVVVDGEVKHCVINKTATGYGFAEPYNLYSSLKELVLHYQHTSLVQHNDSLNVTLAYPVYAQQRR
Sequence of PI3Kγ (P48736 whole entry): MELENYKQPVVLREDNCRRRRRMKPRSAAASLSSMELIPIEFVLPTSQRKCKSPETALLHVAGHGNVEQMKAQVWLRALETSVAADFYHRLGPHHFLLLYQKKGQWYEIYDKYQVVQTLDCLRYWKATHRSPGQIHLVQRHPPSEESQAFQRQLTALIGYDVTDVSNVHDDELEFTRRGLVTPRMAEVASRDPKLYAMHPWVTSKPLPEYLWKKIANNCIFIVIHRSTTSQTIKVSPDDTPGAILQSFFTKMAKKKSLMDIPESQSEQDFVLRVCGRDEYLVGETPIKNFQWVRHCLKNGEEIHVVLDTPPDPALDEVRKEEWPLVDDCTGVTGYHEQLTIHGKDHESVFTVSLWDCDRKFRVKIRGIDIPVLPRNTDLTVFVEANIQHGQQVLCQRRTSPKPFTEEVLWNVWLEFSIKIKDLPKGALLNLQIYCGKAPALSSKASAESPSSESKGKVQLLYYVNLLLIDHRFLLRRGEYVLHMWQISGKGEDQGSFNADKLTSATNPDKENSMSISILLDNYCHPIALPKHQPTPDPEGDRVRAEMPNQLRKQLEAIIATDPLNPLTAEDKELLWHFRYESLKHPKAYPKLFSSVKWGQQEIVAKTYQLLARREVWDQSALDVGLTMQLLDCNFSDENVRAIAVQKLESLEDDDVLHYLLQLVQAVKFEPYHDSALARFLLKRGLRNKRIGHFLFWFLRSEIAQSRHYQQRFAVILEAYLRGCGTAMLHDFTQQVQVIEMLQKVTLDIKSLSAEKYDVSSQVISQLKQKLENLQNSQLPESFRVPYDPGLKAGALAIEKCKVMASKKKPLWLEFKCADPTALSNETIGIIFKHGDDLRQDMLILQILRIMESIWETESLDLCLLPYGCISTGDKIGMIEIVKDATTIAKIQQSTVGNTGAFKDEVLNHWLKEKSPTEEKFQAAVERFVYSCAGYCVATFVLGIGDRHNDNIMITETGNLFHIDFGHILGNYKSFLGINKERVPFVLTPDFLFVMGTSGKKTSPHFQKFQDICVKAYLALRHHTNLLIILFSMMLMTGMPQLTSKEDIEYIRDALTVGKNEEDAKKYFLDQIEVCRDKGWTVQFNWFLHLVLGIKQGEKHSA
Sequence of PI3Kγ (Q8WYR1 whole entry partner): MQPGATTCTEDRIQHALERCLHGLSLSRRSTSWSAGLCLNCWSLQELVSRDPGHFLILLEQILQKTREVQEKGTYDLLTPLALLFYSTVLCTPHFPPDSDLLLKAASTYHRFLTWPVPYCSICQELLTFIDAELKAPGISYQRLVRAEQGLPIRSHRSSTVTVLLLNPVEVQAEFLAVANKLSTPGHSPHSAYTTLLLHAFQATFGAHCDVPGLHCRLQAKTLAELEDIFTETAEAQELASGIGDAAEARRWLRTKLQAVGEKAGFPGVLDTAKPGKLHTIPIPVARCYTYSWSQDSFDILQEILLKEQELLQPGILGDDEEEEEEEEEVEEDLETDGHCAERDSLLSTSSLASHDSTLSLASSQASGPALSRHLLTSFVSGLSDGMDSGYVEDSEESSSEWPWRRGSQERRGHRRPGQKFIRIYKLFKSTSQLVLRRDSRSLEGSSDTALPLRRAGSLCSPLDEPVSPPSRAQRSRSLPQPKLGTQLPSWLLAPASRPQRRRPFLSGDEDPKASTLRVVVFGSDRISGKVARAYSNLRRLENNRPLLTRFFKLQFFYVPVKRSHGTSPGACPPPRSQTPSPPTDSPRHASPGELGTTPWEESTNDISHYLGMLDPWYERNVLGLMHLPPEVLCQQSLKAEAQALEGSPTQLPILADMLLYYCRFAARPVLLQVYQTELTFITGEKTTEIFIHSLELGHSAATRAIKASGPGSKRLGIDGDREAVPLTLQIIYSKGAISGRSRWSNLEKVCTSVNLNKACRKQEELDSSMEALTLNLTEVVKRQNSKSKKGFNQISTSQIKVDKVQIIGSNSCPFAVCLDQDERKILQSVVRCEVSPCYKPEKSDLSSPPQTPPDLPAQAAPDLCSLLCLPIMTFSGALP
Sequence of PI3Kα (P42336 whole entry): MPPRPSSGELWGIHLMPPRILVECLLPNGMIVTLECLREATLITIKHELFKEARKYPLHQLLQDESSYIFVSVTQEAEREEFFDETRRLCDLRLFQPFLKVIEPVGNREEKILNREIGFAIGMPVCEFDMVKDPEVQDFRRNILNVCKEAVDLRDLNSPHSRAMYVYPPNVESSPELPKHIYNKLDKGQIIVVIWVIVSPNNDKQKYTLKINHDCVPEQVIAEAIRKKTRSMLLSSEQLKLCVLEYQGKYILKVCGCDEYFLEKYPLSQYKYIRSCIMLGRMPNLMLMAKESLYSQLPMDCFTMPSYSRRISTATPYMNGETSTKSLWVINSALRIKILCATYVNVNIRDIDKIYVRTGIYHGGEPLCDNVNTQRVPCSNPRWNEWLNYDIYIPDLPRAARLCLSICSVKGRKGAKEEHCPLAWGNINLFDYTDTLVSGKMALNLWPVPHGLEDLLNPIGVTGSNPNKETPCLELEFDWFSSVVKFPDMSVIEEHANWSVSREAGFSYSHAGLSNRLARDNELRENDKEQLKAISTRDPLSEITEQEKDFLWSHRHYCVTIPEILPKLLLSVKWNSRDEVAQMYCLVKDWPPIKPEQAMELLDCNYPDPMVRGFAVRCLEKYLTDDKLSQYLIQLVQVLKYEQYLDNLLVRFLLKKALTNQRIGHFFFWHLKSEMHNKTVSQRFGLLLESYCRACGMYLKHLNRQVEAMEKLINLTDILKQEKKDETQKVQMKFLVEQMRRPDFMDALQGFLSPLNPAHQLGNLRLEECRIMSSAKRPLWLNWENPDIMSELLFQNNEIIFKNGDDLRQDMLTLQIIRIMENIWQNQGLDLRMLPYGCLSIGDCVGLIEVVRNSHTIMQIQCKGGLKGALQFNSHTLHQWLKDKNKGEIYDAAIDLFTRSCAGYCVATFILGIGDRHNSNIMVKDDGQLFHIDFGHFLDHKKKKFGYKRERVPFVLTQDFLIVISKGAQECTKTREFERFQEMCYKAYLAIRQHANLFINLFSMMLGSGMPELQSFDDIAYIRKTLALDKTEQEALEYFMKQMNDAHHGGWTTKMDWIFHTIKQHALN
Sequence of PI3Kα (P27986 whole entry partner): as the sequence (P27986 whole entry partner, canonical isoform) above

With `C[C@H](Nc1ncnc(N)c1C#Cc1ccccn1)c1nc2cccc(Cl)c2c(=O)n1-c1ccccc1` [Compound 50a, (S)-2-(1-(6-amino-5-(pyridin-2-ylethynyl)pyrimidin-4-ylamino)ethyl)-5-chloro-3-phenylquinazolin-4(3H)-one], the IC50 against PI3Kδ and against PI3Kβ was less than 100 nM each time.

On to `C[C@H](Nc1ncnc(N)c1C#Cc1cc(C(N)=O)ccn1)c1nc2cccc(Cl)c2c(=O)n1-c1ccccc1` [Compound 156a, (S)-2-((4-amino-6-((1-(5-chloro-4-oxo-3-phenyl-3,4-dihydroquinazolin-2-yl)ethyl)amino)pyrimidin-5-yl)ethynyl)isonicotinamide], for which the IC50 against PI3Kδ and at PI3Kβ was less than 100 nM each time.

Regarding `C[C@H](Nc1ncnc(N)c1C#Cc1ncccn1)c1nc2cccc(F)c2c(=O)n1-c1ccccc1` [Compound 109a, 2-(1-((6-amino-5-(pyrimidin-2-ylethynyl)pyrimidin-4-yl)amino)ethyl)-5-fluoro-3-phenylquinazolin-4(3H)-one], the IC50 against PI3Kδ is less than 100 nM; on PI3Kα it was greater than 1 µM; on PI3Kγ (bound given in uM) it was greater than 1 µM.

As for `C[C@H](Nc1ncnc(N)c1C#Cc1ccc(F)cn1)c1nc2c(F)cccc2c(=O)n1-c1ccccc1` [Compound 13a, (S)-2-(1-(6-amino-5-((5-fluoropyridin-2-yl)ethynyl)pyrimidin-4-ylamino)ethyl)-8-fluoro-3-phenylquinazolin-4(3H)-one], the IC50 against PI3Kδ is less than 100 nM; on PI3Kα, greater than 1 µM; at PI3Kγ (bound given in uM), greater than 1 µM.

For `C[C@H](Nc1ncnc(N)c1C#Cc1cnccn1)c1nc2ccc(F)cc2c(=O)n1-c1ccccc1` [Compound 91a, (S)-2-(1-((6-amino-5-(pyrazin-2-ylethynyl)pyrimidin-4-yl)amino)ethyl)-6-fluoro-3-phenylquinazolin-4(3H)-one], the values for the IC50 against PI3Kδ, at PI3Kα and on PI3Kγ (bound given in uM) were less than 100 nM, greater than 1 µM and greater than 1 µM, respectively.

On to `C[C@H](Nc1ncnc(N)c1C#Cc1ccc(C(N)=O)cn1)c1nc2cccc(Cl)c2c(=O)n1-c1ccccc1` [Compound 135a, (S)-6-((4-amino-6-((1-(5-chloro-4-oxo-3-phenyl-3,4-dihydroquinazolin-2-yl)ethyl)amino)pyrimidin-5-yl)ethynyl)nicotinamide], for which the IC50 was less than 100 nM on PI3Kδ, greater than 1 µM at PI3Kα and less than 0.1 µM on PI3Kγ (bound given in nM).

Consider `C[C@H](Nc1ncnc(N)c1C#CC1CCCC1)c1nc2cccc(Cl)c2c(=O)n1-c1ccccc1` [Compound 144a, (S)-2-(1-((6-amino-5-(cyclopentylethynyl)pyrimidin-4-yl)amino)ethyl)-5-chloro-3-phenylquinazolin-4(3H)-one], for which the IC50 against PI3Kδ is less than 100 nM; against PI3Kα it was greater than 1 µM; against PI3Kγ (bound given in uM), greater than 1 µM.

As for `Cc1ccc(F)c2nc([C@H](C)Nc3ncnc(N)c3C#Cc3cnccn3)n(-c3ccccc3)c(=O)c12` [Compound 75a, (S)-2-(1-((6-amino-5-(pyrazin-2-ylethynyl)pyrimidin-4-yl)amino)ethyl)-8-fluoro-5-methyl-3-phenylquinazolin-4(3H)-one], the IC50 on PI3Kδ and against PI3Kβ was less than 100 nM in each case.

In the case of `Cc1ccc(C#Cc2c(N)ncnc2N[C@@H](C)c2nc3cccc(Cl)c3c(=O)n2-c2ccccc2)nc1` [Compound 133a, (S)-2-(1-((6-amino-5-((5-methylpyridin-2-yl)ethynyl)pyrimidin-4-yl)amino)ethyl)-5-chloro-3-phenylquinazolin-4(3H)-one], the IC50 at PI3Kδ is less than 100 nM; against PI3Kα it was greater than 1 µM; against PI3Kγ (bound given in nM) it was less than 0.1 µM.

Consider `C[C@H](Nc1ncnc(N)c1C#Cc1ccc(F)cn1)c1nc2c(Cl)ccc(Cl)c2c(=O)n1-c1ccccc1` [Compound 11a, (S)-2-(1-(6-amino-5-((5-fluoropyridin-2-yl)ethynyl)pyrimidin-4-ylamino)ethyl)-5,8-dichloro-3-phenylquinazolin-4(3H)-one], for which the IC50 on PI3Kδ was less than 100 nM; against PI3Kα it was greater than 1 µM; at PI3Kγ (bound given in uM) it was greater than 1 µM.

With `C[C@H](Nc1ncnc(N)c1C#Cc1cccc(CO)c1)c1nc2cccc(Cl)c2c(=O)n1-c1ccccc1` [Compound 162a, (S)-2-(1-((6-amino-5-((3-(hydroxymethyl)phenyl)ethynyl)pyrimidin-4-yl)amino)ethyl)-5-chloro-3-phenylquinazolin-4(3H)-one], the IC50 against PI3Kδ is less than 100 nM; against PI3Kα, greater than 1 µM; at PI3Kγ (bound given in uM) it was greater than 1 µM.

Take `CC(=O)c1cccnc1C#Cc1c(N)ncnc1N[C@@H](C)c1nc2cccc(Cl)c2c(=O)n1-c1ccccc1` [Compound 152a, (S)-2-(1-((5-((3-acetylpyridin-2-yl)ethynyl)-6-aminopyrimidin-4-yl)amino)ethyl)-5-chloro-3-phenylquinazolin-4(3H)-one]: the IC50 at PI3Kδ is less than 100 nM; at PI3Kα it was greater than 1 µM; against PI3Kγ (bound given in uM), greater than 1 µM.

Regarding `Cc1ccc(F)c2c(=O)n(-c3ccccc3)c([C@H](C)Nc3ncnc(N)c3C#Cc3ccc(F)cn3)nc12` [Compound 69a, (S)-2-(1-((6-amino-5-((5-fluoropyridin-2-yl)ethynyl)pyrimidin-4-yl)amino)ethyl)-5-fluoro-8-methyl-3-phenylquinazolin-4(3H)-one], the values for the IC50 against PI3Kδ, against PI3Kα and on PI3Kγ (bound given in uM) were less than 100 nM, greater than 1 µM and greater than 1 µM, respectively.

For the molecule `COc1cc(F)cc(C#Cc2c(N)ncnc2N[C@@H](C)c2nc3cccc(Cl)c3c(=O)n2N2CCOCC2)c1` [Compound 122a, (S)-2-(1-((6-amino-5-((3-fluoro-5-methoxyphenyl)ethynyl)pyrimidin-4-yl)amino)ethyl)-5-chloro-3-morpholinoquinazolin-4(3H)-one], the IC50 against PI3Kδ was less than 100 nM; at PI3Kα it was greater than 1 µM; against PI3Kγ (bound given in uM) it was greater than 1 µM.

For the molecule `Cc1cccc2nc([C@H](C)Nc3ncnc(N)c3C#Cc3cnccn3)n(-c3cccc(F)c3)c(=O)c12` [Compound 106a, (S)-2-(1-((6-amino-5-(pyrazin-2-ylethynyl)pyrimidin-4-yl)amino)ethyl)-3-(3-fluorophenyl)-5-methylquinazolin-4(3H)-one], the results for the IC50 against PI3Kδ, at PI3Kα and against PI3Kγ (bound given in uM) were less than 100 nM, greater than 1 µM and greater than 1 µM, respectively.

In the case of `C[C@H](Nc1ncnc(N)c1C#Cc1cnccn1)c1nc2cccc(F)c2c(=O)n1-c1cccnc1` [Compound 115a, (S)-2-(1-((6-amino-5-(pyrazin-2-ylethynyl)pyrimidin-4-yl)amino)ethyl)-5-fluoro-3-(pyridin-3-yl)quinazolin-4(3H)-one], the IC50 at PI3Kδ is less than 100 nM; against PI3Kα, greater than 1 µM; on PI3Kγ (bound given in uM), greater than 1 µM.

For `CCc1ccnc(C#Cc2c(N)ncnc2N[C@@H](C)c2nc3cccc(Cl)c3c(=O)n2-c2ccccc2)c1` [Compound 150a, (S)-2-(1-((6-amino-5-((4-ethylpyridin-2-yl)ethynyl)pyrimidin-4-yl)amino)ethyl)-5-chloro-3-phenylquinazolin-4(3H)-one], the IC50 was less than 100 nM against PI3Kδ, greater than 1 µM at PI3Kα and less than 0.1 µM at PI3Kγ (bound given in nM).

On to `Cc1nc(C#Cc2c(N)ncnc2N[C@@H](C)c2nc3cccc(Cl)c3c(=O)n2-c2ccccc2)ccc1F` [Compound 140a, (S)-2-(1-((6-amino-5-((5-fluoro-6-methylpyridin-2-yl)ethynyl)pyrimidin-4-yl)amino)ethyl)-5-chloro-3-phenylquinazolin-4(3H)-one], for which the IC50 at PI3Kδ was less than 100 nM; on PI3Kα, greater than 1 µM; against PI3Kγ (bound given in uM), greater than 1 µM.
